Here are results for one compound from patent US9429521B2, “Plant phenometrics systems and methods and devices related thereto” (BOARD OF TRUSTEES OF MICHIGAN STATE UNIVERSITY, priority 2012, dated 2016).

In test [1] the test system is Arabidopsis thaliana plants (col-0). The test is described as follows: Discontinuous chlorophyll fluorescence imaging of ΦII with red actinic light after coronatine spraying. It counts as in vivo. As to conditions: 5 μM sprayed, monochromatic (red) actinic light, 1, 4, 8 and 24 hours after treatment. The protocol:
Arabidopsis thaliana plants (col-0) were grown on soil at 22° C. day temperature and 18° C. night temperature, 50% humidity and an intensity of μmol photons m^−2 s^−1 with an 16:8 day:night cycle. Chlorophyll a fluorescence images of steady state (FS) and the fluorescence maximum at steady state (FM′) were collected at growth light intensity and in the absence or presence of saturating illumination, respectively. These images were used to generate images of ΦII, a measure of photosynthetic efficiency on the day of and after treatment (by spraying) with 5 μM coronatine (cor) or water (control). Coronatine is a compound produced by a bacterial plant pathogen. As a chemical analog of jasmonic acid, it elicits a stress response, which includes differential induction and repression of classes of photosynthesis associated genes (PAGs). […] For discontinuous imaging, plants were maintained in the growth chamber where they were treated and transferred to and from the fluorescence imager for measurements. For in situ imaging, the plants were allowed to readjust after transfer to the new chamber with white LED lighting for at least 24 hours prior to treatment and were kept in the chamber for the duration of experiment.

Test [2] has the same test system. The test is described as follows: Continuous in situ chlorophyll fluorescence imaging of ΦII with white actinic LED after coronatine spraying. As to conditions: 5 μM sprayed. Type of test: in vivo. The procedure: Arabidopsis thaliana plants (col-0) were grown on soil at 22° C. day temperature and 18° C. night temperature, 50% humidity and an intensity of μmol photons m^−2 s^−1 with an 16:8 day:night cycle. Chlorophyll a fluorescence images of steady state (FS) and the fluorescence maximum at steady state (FM′) were collected at growth light intensity and in the absence or presence of saturating illumination, respectively. These images were used to generate images of ΦII, a measure of photosynthetic efficiency on the day of and after treatment (by spraying) with 5 μM coronatine (cor) or water (control). Coronatine is a compound produced by a bacterial plant pathogen. As a chemical analog of jasmonic acid, it elicits a stress response, which includes differential induction and repression of classes of photosynthesis associated genes (PAGs). To determine if there were immediate and/or sustained effects on photosynthesis, imaging was performed discontinuously in an imager that used monochromatic (red) actinic light or continuously in situ in a growth chamber outfitted with a white actinic LED imaging system. For discontinuous imaging, plants were maintained in the growth chamber where they were treated and transferred to and from the fluorescence imager for measurements. For in situ imaging, the plants were allowed to readjust after transfer to the new chamber with white LED lighting for at least 24 hours prior to treatment and were kept in the chamber for the duration of experiment.
Imaging in situ with white LED actinic illumination minimized the stress of moving a plant from its growth environment to the instrument and with automated image capture facilitated collection of data at higher time resolution (FIG. 10). […] The effect is also heterogeneous, more strongly observed in some leaves or not occurring at all in other (younger) leaves.

Turning to `CC[C@H]1C=C(C(=O)N[C@@]2(C(=O)O)C[C@@H]2CC)[C@H]2CCC(=O)[C@H]2C1` [coronatine], in test [1], the “ΦII (photosynthetic efficiency), treated vs untreated plants” value is “no differences between treated and untreated plants”. In addition, the “photosynthetic efficiency (ΦII) effect” value in test [2] (in situ imaging, second day after treatment (more recent studies, not shown)) is listed as “the effect was not observed”; in test [2] (white LED in situ imaging, mid-morning on the day after treatment (25 hours)), “almost completely disappears”. In addition, the “photosynthetic efficiency (ΦII)” value in test [2] (white LED in situ imaging, early morning on the day after treatment (21 hours)) is “large decrease in photosynthetic efficiency”.
